Source: PubChem BioAssay AID270 (DTP/NCI, 2004)
Inconclusive results are not listed.

System: BDF1 mice, s.c. Lewis lung carcinoma, T/C %
Assay: NCI In Vivo Anticancer Drug Screen. Data for tumor model Lewis Lung Carcinoma (subcutaneous) in B6D2F1 (BDF1) mice
Procedure, shortened: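 Antitumor effect in vivo is scored from survival or tumor burden, reported as treated relative to vehicle controls.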

Structure (SMILES): Cc1cc(NCCCCCCNc2cc(C)nc3ccc(N)cc23)c2cc(N)ccc2n1
- T/C (endpoint: median tumor weight (est.), dose: 18.75 mg/kg/injection, schedule: Q01DX009 (ip), vehicle: Klucel (hydroxypropylcellulose) (HPC), higher = larger tumour): 75 % of control
- T/C (endpoint: median tumor weight (est.), dose: 37.5 mg/kg/injection, schedule: Q01DX009 (ip), vehicle: Klucel (hydroxypropylcellulose) (HPC), higher = larger tumour): 54 % of control
- T/C (endpoint: median tumor weight (est.), dose: 37.5 mg/kg/injection, schedule: Q01DX009 (oral), vehicle: Klucel (hydroxypropylcellulose) (HPC), higher = larger tumour): 90 % of control
- T/C (endpoint: median tumor weight (est.), dose: 75.0 mg/kg/injection, schedule: Q01DX009 (ip), vehicle: Klucel (hydroxypropylcellulose) (HPC), higher = larger tumour): 27 % of control
- T/C (endpoint: median tumor weight (est.), dose: 75.0 mg/kg/injection, schedule: Q01DX009 (oral), vehicle: Klucel (hydroxypropylcellulose) (HPC), higher = larger tumour): 102 % of control
- T/C (endpoint: median tumor weight (est.), dose: 150.0 mg/kg/injection, schedule: Q01DX009 (oral), vehicle: Klucel (hydroxypropylcellulose) (HPC), higher = larger tumour): 102 % of control
- T/C (endpoint: median tumor weight (est.), dose: 300.0 mg/kg/injection, schedule: Q01DX009 (oral), vehicle: Klucel (hydroxypropylcellulose) (HPC), higher = larger tumour): 84 % of control
- T/C (endpoint: median tumor weight (est.), dose: 600.0 mg/kg/injection, schedule: Q01DX009 (oral), vehicle: Klucel (hydroxypropylcellulose) (HPC), higher = larger tumour): 83 % of control

Structure (SMILES): S=C(N=Nc1ccccc1)NNc1ccccc1
- T/C (endpoint: mean tumor weight, dose: 45.0 mg/kg/injection, schedule: Q01DX011 (ip), vehicle: carboxymethylcellulose (CMC), higher = larger tumour): 60 % of control

Structure (SMILES): CSCS(=O)C[C@H](CO)NC(=O)/C=C/c1c(C)[nH]c(=O)[nH]c1=O (stereo partly specified)
- T/C (endpoint: median survival time, dose: 0.08 mg/kg/injection, schedule: Q01DX009 (ip), vehicle: water, higher = longer survival): 94 % of control
- T/C (endpoint: median survival time, dose: 0.15 mg/kg/injection, schedule: Q01DX009 (ip), vehicle: water, higher = longer survival): 109 % of control
- T/C (endpoint: median survival time, dose: 0.3 mg/kg/injection, schedule: Q01DX009 (ip), vehicle: water, higher = longer survival): 97 % of control

Structure (SMILES): C=C(C)[C@H]1Cc2c(ccc3c2O[C@@H]2COc4cc(OC)c(OC)cc4[C@@H]2C3=O)O1
- T/C (endpoint: mean tumor weight, dose: 0.25 mg/kg/injection, schedule: Q01DX011 (ip), vehicle: water, higher = larger tumour): 76 % of control
- T/C (endpoint: mean tumor weight, dose: 0.5 mg/kg/injection, schedule: Q01DX011 (ip), vehicle: water, higher = larger tumour): 65 % of control
- T/C (endpoint: mean tumor weight, dose: 1.0 mg/kg/injection, schedule: Q01DX011 (ip), vehicle: water, higher = larger tumour): 60 % of control

Structure (SMILES): O=[N+]([O-])c1ccccc1CSc1ncnc2nc[nH]c12
- T/C (endpoint: mean tumor weight, dose: 15.6 mg/kg/injection, schedule: Q01DX011 (ip), vehicle: other, higher = larger tumour): 38 % of control
- T/C (endpoint: mean tumor weight, dose: 31.3 mg/kg/injection, schedule: Q01DX011 (ip), vehicle: other, higher = larger tumour): 86 % of control
- T/C (endpoint: mean tumor weight, dose: 62.5 mg/kg/injection, schedule: Q01DX011 (ip), vehicle: other, higher = larger tumour): 82 % of control
- T/C (endpoint: mean tumor weight, dose: 125.0 mg/kg/injection, schedule: Q01DX011 (ip), vehicle: other, higher = larger tumour): 41 % of control

Structure (SMILES): CC(=O)O[C@@H]1[C@H]2O[C@H]2[C@H]2O[C@@]2(COC(=O)c2ccccc2)[C@H]1OC(C)=O
- T/C (endpoint: mean tumor weight, dose: 150.0 mg/kg/injection, schedule: Q01DX011 (ip), vehicle: carboxymethylcellulose (CMC), higher = larger tumour): 24 % of control
- T/C (endpoint: mean tumor weight, dose: 200.0 mg/kg/injection, schedule: Q01DX011 (ip), vehicle: carboxymethylcellulose (CMC), higher = larger tumour): 307 % of control
- T/C (endpoint: mean tumor weight, dose: 300.0 mg/kg/injection, schedule: Q01DX011 (ip), vehicle: carboxymethylcellulose (CMC), higher = larger tumour): 119 % of control
- T/C (endpoint: median survival time, dose: 3.12 mg/kg/injection, schedule: Q01DX009 (ip), vehicle: gum acacia, higher = longer survival): 95 % of control
- T/C (endpoint: median survival time, dose: 6.25 mg/kg/injection, schedule: Q01DX009 (ip), vehicle: gum acacia, higher = longer survival): 92 % of control
- T/C (endpoint: median survival time, dose: 12.5 mg/kg/injection, schedule: Q01DX009 (ip), vehicle: gum acacia, higher = longer survival): 115 % of control
- T/C (endpoint: median survival time, dose: 25.0 mg/kg/injection, schedule: Q01DX009 (ip), vehicle: gum acacia, higher = longer survival): 87 % of control

Structure (SMILES): C=C1C(=O)O[C@@H]2[C@H](O)[C@@H](C)[C@@H]3C=CC(=O)[C@@]3(C)[C@H](OC(=O)C=C(C)C)[C@H]12
- T/C (endpoint: median survival time, dose: 0.63 mg/kg/injection, schedule: Q01DX009 (ip), vehicle: saline with Tween-80, higher = longer survival): 95 % of control
- T/C (endpoint: median survival time, dose: 1.25 mg/kg/injection, schedule: Q01DX009 (ip), vehicle: saline with Tween-80, higher = longer survival): 92 % of control
- T/C (endpoint: median survival time, dose: 2.5 mg/kg/injection, schedule: Q01DX009 (ip), vehicle: saline with Tween-80, higher = longer survival): 99 % of control
- T/C (endpoint: median survival time, dose: 5.0 mg/kg/injection, schedule: Q01DX009 (ip), vehicle: saline with Tween-80, higher = longer survival): 95 % of control
- T/C (endpoint: median survival time, dose: 10.0 mg/kg/injection, schedule: Q01DX009 (ip), vehicle: Klucel (hydroxypropylcellulose) (HPC), higher = longer survival): 118 % of control
- T/C (endpoint: median survival time, dose: 10.0 mg/kg/injection, schedule: Q01DX009 (ip), vehicle: saline with Tween-80, higher = longer survival): 92 % of control

Structure (SMILES): C/C=C(\C)C(=O)N/N=C\c1cc(Cl)cc(Cl)c1O
- T/C (endpoint: median survival time, dose: 12.5 mg/kg/injection, schedule: Q01DX009 (ip), vehicle: olive oil, sesame oil, peanut oil, higher = longer survival): 102 % of control
- T/C (endpoint: median survival time, dose: 25.0 mg/kg/injection, schedule: Q01DX009 (ip), vehicle: olive oil, sesame oil, peanut oil, higher = longer survival): 112 % of control
- T/C (endpoint: median survival time, dose: 50.0 mg/kg/injection, schedule: Q01DX009 (ip), vehicle: olive oil, sesame oil, peanut oil, higher = longer survival): 90 % of control
- T/C (endpoint: median survival time, dose: 200.0 mg/kg/injection, schedule: Q01DX009 (ip), vehicle: olive oil, sesame oil, peanut oil, higher = longer survival): 86 % of control
